Test results reported in patent US12630529B2, “GCN2 modulator compounds” (ALESTA THERAPEUTICS BV, priority 2020, dated 2026).

tested on: CHOP (DDIT3) reporter; assay: GCN2-induction of CHOP and apoptosis in 3T3 fibroblasts with CHOP (DDIT3) reporter construct; type: cell-based, murine; settings: murine 3T3 WT and GCN2 knockout CHOP reporter cells, stress inducer alone
Procedure: The CHOP construct comprised the […] (UTR) of mouse DDIT3 mRNA fused to a sequence encoding the fluorescent protein mCherry.
Cells were seeded at 5,000 cells per well in flat bottom 96-well plates in 100 μL DMEM low glucose media without phenol red, and supplemented with 10% FBS and 2 mM glutamine. After 24 hours, the exemplary compounds, and either tunicamycin, halofuginone, or histidinol, were added together with 100 nM of fluorescent apoptosis stain (YO-PRO™-1 Iodide; Thermo Fisher) to detect apoptotic cells. Cells were placed in a live-cell imaging and analysis platform (IncuCyte ZOOM®; Essenbio) set up in a humidified incubator at 37° C. and the plates were scanned every 4 hours for up 120 hours, at 10× magnification, to determine cell confluence and cell death. Experiments were performed in duplicate with 3 images collected per well, and analyzed using live-cell imaging and analysis software (IncuCyte ZOOM® 2018A software; Essenbio).

Row | Molecule | induction of CHOP (mCherry)
1 | O=C(CC1NCCCC1O)Cn1cnc2cc(Br)c(Cl)cc2c1=O (centres unmarked) [halofuginone, reference compound] | induction of CHOP (mCherry) could be observed in the WT cells, but not in the GCN2 knockout cells
2 | N[C@H](CO)Cc1c[nH]cn1 [histidinol, L-histidinol, reference compound] | induction of CHOP (mCherry) could be observed in the WT cells, but not in the GCN2 knockout cells
3 | tunicamycin [reference compound] | significant induction of CHOP in both the WT and GCN2 knockout cell lines

molecular target: GCN2 (Homo sapiens, UniProt Q9P2K8); assay: GCN2 enzyme inhibition assay (Reaction Biology EIF2AK4/GCN2 kinase assay); type: biochemical; design: purchased Reaction Biology Corp; settings: human GCN2 enzyme activity, 10 μM ATP, 20 μM peptide substrate
Procedure: In order to validate the above results, human GCN2 enzyme activity was measured in Reaction Biology Corp (EIF2AK4/GCN2 kinase assay). Compounds were tested in 5-dose IC50 mode for non-active compounds and 10-dose IC50 mode for active compounds with 3-fold serial dilution starting at 30 μM and 0.1 μM respectively. Control compound Staurosporine was tested in 10-dose IC50 mode with 4-fold serial dilution starting at 20 μM. Reactions were carried out at 10 μM ATP using 20 μM peptide substrate [GRSRSRSRSR]. For IC50 values: +++ refers to <10 nM of test compound; ++ refers to 10 nM to 100 nM of test compound; + refers to 100 nM to 1,000 nM of test compound and − refers to >1,000 nM of test compound.

Chain of GCN2 (Homo sapiens, UniProt Q9P2K8) (Q9P2K8 whole entry): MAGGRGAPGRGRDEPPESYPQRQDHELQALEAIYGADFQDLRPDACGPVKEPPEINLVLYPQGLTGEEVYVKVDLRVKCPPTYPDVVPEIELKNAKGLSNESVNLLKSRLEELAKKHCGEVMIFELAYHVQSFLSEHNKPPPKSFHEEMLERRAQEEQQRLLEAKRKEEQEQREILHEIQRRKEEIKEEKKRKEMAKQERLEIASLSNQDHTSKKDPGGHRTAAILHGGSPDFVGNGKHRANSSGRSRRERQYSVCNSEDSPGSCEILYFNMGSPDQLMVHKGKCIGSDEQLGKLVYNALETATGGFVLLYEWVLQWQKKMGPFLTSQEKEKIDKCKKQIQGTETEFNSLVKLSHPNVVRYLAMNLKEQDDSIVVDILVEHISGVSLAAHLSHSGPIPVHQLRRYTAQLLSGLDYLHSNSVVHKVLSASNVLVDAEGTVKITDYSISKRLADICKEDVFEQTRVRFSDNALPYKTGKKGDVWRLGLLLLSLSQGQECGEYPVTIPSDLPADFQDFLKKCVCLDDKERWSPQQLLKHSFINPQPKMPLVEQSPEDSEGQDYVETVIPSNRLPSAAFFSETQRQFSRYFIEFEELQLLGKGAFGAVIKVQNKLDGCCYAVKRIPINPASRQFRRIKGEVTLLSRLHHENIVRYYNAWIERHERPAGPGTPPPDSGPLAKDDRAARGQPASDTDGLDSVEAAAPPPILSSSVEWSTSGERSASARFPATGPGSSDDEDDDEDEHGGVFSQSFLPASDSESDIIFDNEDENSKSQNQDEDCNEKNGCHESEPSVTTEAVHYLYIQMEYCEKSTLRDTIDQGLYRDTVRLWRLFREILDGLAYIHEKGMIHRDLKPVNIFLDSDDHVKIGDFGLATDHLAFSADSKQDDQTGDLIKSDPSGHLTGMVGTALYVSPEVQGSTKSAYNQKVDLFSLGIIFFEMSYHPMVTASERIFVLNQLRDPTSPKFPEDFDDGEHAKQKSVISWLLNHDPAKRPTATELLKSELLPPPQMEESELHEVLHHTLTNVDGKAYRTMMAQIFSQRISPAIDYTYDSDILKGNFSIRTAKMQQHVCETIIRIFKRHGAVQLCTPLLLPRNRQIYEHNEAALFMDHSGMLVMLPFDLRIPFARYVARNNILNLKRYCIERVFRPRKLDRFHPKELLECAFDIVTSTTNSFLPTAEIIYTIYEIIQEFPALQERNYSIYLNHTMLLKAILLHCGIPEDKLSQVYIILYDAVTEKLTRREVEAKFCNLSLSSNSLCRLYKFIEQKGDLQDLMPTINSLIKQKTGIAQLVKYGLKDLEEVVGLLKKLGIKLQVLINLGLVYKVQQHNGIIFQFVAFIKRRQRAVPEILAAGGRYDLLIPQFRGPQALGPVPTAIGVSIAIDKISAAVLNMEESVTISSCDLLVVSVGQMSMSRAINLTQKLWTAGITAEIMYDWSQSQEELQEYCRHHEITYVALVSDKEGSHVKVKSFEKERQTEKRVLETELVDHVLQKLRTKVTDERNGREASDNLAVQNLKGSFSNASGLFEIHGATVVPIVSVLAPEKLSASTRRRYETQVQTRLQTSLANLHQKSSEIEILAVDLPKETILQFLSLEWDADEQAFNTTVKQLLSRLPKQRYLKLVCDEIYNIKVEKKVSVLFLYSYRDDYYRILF

Row | Molecule | IC50 [nM]
4 | COc1ncc(Cl)cc1C(=O)Nc1ccc(F)c(C#Cc2cnc(N)nc2)c1F [Compound 3] | > 1000
5 | COc1ncc(Cl)cc1S(=O)(=O)Nc1ccc(F)c(-c2ccc(-c3cnc(N)nc3)nc2)c1F [Compound 4] | 100 to 1000
6 | Nc1ncc2ccc(-c3c(F)ccc(NS(=O)(=O)c4cc(Cl)ccc4Cl)c3F)cc2n1 [Compound 5] | > 1000
7 | COc1ncc(Cl)cc1S(=O)(=O)Nc1ccc(F)c(-c2ccc3cnc(N)nc3c2)c1F [Compound 6] | > 1000
8 | COc1ncc(Cl)cc1-c1nnc(-c2ccc(F)c(C#Cc3cnc(N)nc3)c2F)o1 [Compound 7] | > 1000

molecular target: T1, GCN2 (Mus musculus, UniProt Q9QZ05); assay: GCN2 inhibition cell-based assay (P-GCN2 Western blot in Neuro 2a cells); settings: amino acid deprived media (DMEM lacking L-cysteine and methionine), 3 hours
T1 construct: endogenous in cells; host or cells: Neuro 2a (N2a)
Procedure: Neuro 2a cells (N2a) were maintained at 37° C. and 5% CO2 in DMEM/F12 medium (Fisher Scientific) supplemented with 10% fetal bovine serum and 1% penicillin-streptomycin (complete medium). 300,000 cells/well were seeded in flat bottom 6 well plates 48 hours before treatment with the compounds.
Testing compounds were prepared at different concentrations ranging from 10 μM to 0.1 nM on DMEM medium lacking L-cysteine and methionine (DMEM-CM) (Gibco) and supplemented with 1% penicillin-streptomycin. Complete medium was used as control of non-stressed condition. After 48 hours, the medium was removed from each well and 2 mL per well of each treatment was added. Cells were treated for 3 hours at 37° C. and 5% CO2.
After the incubation time, each well was washed with sterile 1×PBS and then 100 μL of ice-cold lysis buffer supplemented with phosphatase and protease inhibitors was added. Lysates were transferred to 1.5 mL tubes and sonicated for 3 min, and total protein amounts were quantified using BCA assay (e.g., BCA Protein Assay Kit; Pierce) according to manufacturer instructions. Equal amount of proteins was loaded on SDS-PAGE gels for electrophoresis and then transferred onto 0.2 µm filter pore PVDF membranes.
Membranes were then blocked in blocking buffer containing 3% BSA/0.1% Tween/1×Tris-buffered saline (TBS) for 1 hour and then incubated overnight at 4° C. with agitation with anti-pGCN2 primary antibody (Abcam ab-75836), diluted 1:1,000 in blocking buffer. […] (Sigma Aldrich) was used as a loading control.
Membranes were then incubated with the corresponding secondary antibody to detect immune-reactive bands using enhanced chemiluminescence (e.g., ECL Western Blotting Substrate Pierce).
Images were acquired (e.g., using Chemidoc™ equipment) and quantitated by densitometry using ImageJ software. IC50 values were determined from a concentration-response curve using GraphPad prism software.
IC50 values from P-GCN2 inhibition assay after induction with amino acid deprived media in the presence of different concentrations of test compounds are shown in Table 2. For IC50 values: +++ refers to <10 nM of test compound; ++ refers to 10 nM to 100 nM of test compound; + refers to 100 nM to 1,000 nM of test compound and − refers to >1,000 nM of test compound.
Under GCN2-mediated stress conditions, resulting from an amino acid deprived medium, GCN2 is generally phosphorylated. Accordingly, inhibition of GCN2 phosphorylation as a result of the test compound indicates inhibition of the GCN2 pathway.

T1 sequence (Q9QZ05 whole entry): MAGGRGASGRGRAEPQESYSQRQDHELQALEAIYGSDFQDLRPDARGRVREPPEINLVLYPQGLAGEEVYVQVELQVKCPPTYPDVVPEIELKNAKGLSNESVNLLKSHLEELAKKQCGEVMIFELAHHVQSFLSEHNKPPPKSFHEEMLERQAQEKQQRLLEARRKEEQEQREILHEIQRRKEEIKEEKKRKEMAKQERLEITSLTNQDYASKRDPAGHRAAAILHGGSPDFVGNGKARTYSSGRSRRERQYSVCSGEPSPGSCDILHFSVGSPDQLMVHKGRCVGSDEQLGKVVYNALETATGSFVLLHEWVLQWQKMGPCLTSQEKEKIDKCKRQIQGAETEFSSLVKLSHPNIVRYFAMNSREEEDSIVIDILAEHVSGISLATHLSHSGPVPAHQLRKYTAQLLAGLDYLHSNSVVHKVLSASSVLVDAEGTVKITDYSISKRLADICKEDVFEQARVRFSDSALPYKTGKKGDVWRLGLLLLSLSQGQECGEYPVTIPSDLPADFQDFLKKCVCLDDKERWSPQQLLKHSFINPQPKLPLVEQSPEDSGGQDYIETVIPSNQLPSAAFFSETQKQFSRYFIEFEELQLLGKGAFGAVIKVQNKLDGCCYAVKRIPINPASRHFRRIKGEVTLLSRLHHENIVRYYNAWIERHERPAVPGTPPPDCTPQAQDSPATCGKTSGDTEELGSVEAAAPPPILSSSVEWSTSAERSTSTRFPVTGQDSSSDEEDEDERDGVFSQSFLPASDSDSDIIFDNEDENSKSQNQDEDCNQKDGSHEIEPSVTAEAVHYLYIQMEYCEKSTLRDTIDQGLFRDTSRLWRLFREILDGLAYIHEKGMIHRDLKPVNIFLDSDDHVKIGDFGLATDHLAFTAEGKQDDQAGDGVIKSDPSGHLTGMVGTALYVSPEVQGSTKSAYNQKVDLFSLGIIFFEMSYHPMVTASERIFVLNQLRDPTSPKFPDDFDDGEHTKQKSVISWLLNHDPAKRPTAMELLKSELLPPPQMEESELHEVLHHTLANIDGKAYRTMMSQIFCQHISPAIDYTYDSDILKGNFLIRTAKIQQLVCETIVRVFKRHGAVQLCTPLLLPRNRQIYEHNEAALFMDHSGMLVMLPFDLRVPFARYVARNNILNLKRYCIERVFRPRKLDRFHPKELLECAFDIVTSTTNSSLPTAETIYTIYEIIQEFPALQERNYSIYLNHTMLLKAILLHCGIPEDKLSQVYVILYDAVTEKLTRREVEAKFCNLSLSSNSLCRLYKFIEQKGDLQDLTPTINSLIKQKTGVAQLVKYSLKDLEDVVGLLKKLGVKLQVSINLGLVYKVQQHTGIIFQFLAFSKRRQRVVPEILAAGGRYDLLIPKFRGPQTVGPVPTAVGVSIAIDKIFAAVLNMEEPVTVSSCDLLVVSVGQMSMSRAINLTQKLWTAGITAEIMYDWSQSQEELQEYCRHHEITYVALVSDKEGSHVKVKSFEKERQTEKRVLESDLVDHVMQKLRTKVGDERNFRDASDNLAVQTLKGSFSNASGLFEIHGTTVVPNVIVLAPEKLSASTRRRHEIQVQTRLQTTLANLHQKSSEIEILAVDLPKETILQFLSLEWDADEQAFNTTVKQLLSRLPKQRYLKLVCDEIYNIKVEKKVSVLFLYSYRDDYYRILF

Row | Molecule | IC50 [nM]
9 | COc1ncc(Cl)cc1C(=O)Nc1ccc(F)c(C#Cc2cnc(N)nc2)c1F [Compound 3] | > 1000
10 | COc1ncc(Cl)cc1S(=O)(=O)Nc1ccc(F)c(-c2ccc(-c3cnc(N)nc3)nc2)c1F [Compound 4] | > 1000
11 | Nc1ncc2ccc(-c3c(F)ccc(NS(=O)(=O)c4cc(Cl)ccc4Cl)c3F)cc2n1 [Compound 5] | > 1000
12 | COc1ncc(Cl)cc1S(=O)(=O)Nc1ccc(F)c(-c2ccc3cnc(N)nc3c2)c1F [Compound 6] | > 1000
13 | COc1ncc(Cl)cc1-c1nnc(-c2ccc(F)c(C#Cc3cnc(N)nc3)c2F)o1 [Compound 7] | > 1000
14 | Nc1ncc2cc(-c3c(F)ccc(NS(=O)(=O)c4ccc(F)c(C(F)(F)F)c4)c3F)ccc2n1 [Compound 136] | 100 to 1000
15 | Nc1ncc2cc(-c3c(F)ccc(NS(=O)(=O)c4ccc(Cl)cc4C(F)(F)F)c3F)ccc2n1 [Compound 137] | 10 to 100
16 | Nc1ncc2cc(-c3c(F)ccc(NS(=O)(=O)c4ccc(F)c(C(F)(F)F)c4)c3F)ccc2n1 [Compound 138] | > 1000
17 | Nc1ncc2cc(-c3c(F)ccc(NS(=O)(=O)c4cccc(OC(F)(F)F)c4)c3F)ccc2n1 [Compound 139] | 100 to 1000
18 | Nc1ncc2cc(-c3c(F)ccc(NS(=O)(=O)c4ccsc4)c3F)ccc2n1 [Compound 140] | > 1000
19 | CC(C)c1cccc(S(=O)(=O)Nc2ccc(F)c(-c3ccc4nc(N)ncc4c3)c2F)c1 [Compound 141] | > 1000
20 | Nc1ncc2cc(-c3c(F)ccc(NS(=O)(=O)c4cccs4)c3F)ccc2n1 [Compound 142] | > 1000
21 | COc1cc(S(=O)(=O)Nc2ccc(F)c(-c3ccc4nc(N)ncc4c3)c2F)ccc1F [Compound 143] | 100 to 1000
22 | Nc1ncc2cc(-c3c(F)ccc(NS(=O)(=O)c4cc(C(F)(F)F)cc(C(F)(F)F)c4)c3F)ccc2n1 [Compound 144] | 10 to 100
23 | Nc1ncc2cc(-c3c(F)ccc(NS(=O)(=O)c4cccc(C(F)(F)F)c4)c3F)ccc2n1 [Compound 145] | > 1000
24 | Nc1ncc2cc(-c3c(F)ccc(NS(=O)(=O)c4ccc(Cl)c(F)c4)c3F)ccc2n1 [Compound 146] | 100 to 1000
25 | Cc1ccc(S(=O)(=O)Nc2ccc(F)c(-c3ccc4nc(N)ncc4c3)c2F)cc1Cl [Compound 147] | 100 to 1000
26 | COc1ccc(S(=O)(=O)Nc2ccc(F)c(-c3ccc4nc(N)ncc4c3)c2F)cc1Cl [Compound 148] | 100 to 1000

Row | Molecule | IC50 [nM]
27 | Nc1ncc2cc(-c3c(F)ccc(NS(=O)(=O)c4ccc(Cl)c(C(F)(F)F)c4)c3F)ccc2n1 [Compound 149] | 100 to 1000
28 | Nc1ncc2cc(-c3c(F)ccc(NS(=O)(=O)c4cc(Cl)c(Cl)cc4Cl)c3F)ccc2n1 [Compound 150] | 10 to 100
29 | COc1ncc(Cl)cc1S(=O)(=O)Nc1ccc(F)c(-c2ccc3nc(NC(CO)CO)ncc3c2)c1F [Compound 153] | 10 to 100
30 | COc1ncc(Cl)cc1S(=O)(=O)Nc1ccc(F)c(-c2ccc3nc(N[C@@H](CO)c4ccccc4)ncc3c2)c1F [Compound 154] | 100 to 1000
31 | COc1ncc(Cl)cc1S(=O)(=O)Nc1ccc(F)c(-c2ccc3nc(N(C)C)ncc3c2)c1F [Compound 155] | 100 to 1000
32 | COc1ncc(Cl)cc1S(=O)(=O)Nc1ccc(F)c(-c2ccc3nc(N4CCCCC4)ncc3c2)c1F [Compound 156] | 10 to 100
33 | COc1ncc(Cl)cc1S(=O)(=O)Nc1ccc(F)c(-c2ccc3nc(N[C@@H](C)CO)ncc3c2)c1F [Compound 157] | < 10
34 | Nc1ncc2cc(-c3c(F)ccc(NS(=O)(=O)c4ccc(F)c(Cl)c4)c3F)ccc2n1 [Compound 158] | 100 to 1000
35 | Cc1ccc(S(=O)(=O)Nc2ccc(F)c(-c3ccc4nc(N)ncc4c3)c2F)cc1F [Compound 159] | 10 to 100
36 | Cc1cc(S(=O)(=O)Nc2ccc(F)c(-c3ccc4nc(N)ncc4c3)c2F)ccc1F [Compound 160] | > 1000
37 | Nc1ncc2cc(-c3c(F)ccc(NS(=O)(=O)c4ccc5c(c4)CCC5)c3F)ccc2n1 [Compound 161] | > 1000
38 | CNc1ncc2cc(-c3c(F)ccc(NS(=O)(=O)c4cc(Cl)cc(CO)c4Cl)c3F)ccc2n1 [Compound 162] | 10 to 100
39 | COc1ncc(Cl)cc1S(=O)(=O)Nc1ccc(F)c(-c2ccc3nc(N[C@H](CO)c4ccccc4)ncc3c2)c1F [Compound 163] | 100 to 1000
40 | O=S(=O)(Nc1ccc(F)c(-c2ccc3nc(N[C@H]4CC[C@H](O)CC4)ncc3c2)c1F)c1cc(Cl)ccc1C(F)(F)F [Compound 164] | < 10
41 | O=S(=O)(Nc1ccc(F)c(-c2ccc3nc(N[C@H]4CC[C@@H](O)CC4)ncc3c2)c1F)c1cc(Cl)ccc1C(F)(F)F [Compound 165] | 10 to 100
42 | O=S(=O)(Nc1ccc(F)c(-c2ccc3nc(N[C@H](CO)c4ccccc4)ncc3c2)c1F)c1cc(Cl)ccc1C(F)(F)F [Compound 166] | 100 to 1000
43 | O=S(=O)(Nc1ccc(F)c(-c2ccc3nc(N[C@@H](CO)c4ccccc4)ncc3c2)c1F)c1cc(Cl)ccc1C(F)(F)F [Compound 167] | 100 to 1000
44 | O=S(=O)(Nc1ccc(F)c(-c2ccc3nc(NC4CCOC4)ncc3c2)c1F)c1cc(Cl)ccc1Cl (centres unmarked) [Compound 168] | < 10
